Experiments:
[1] = molecular target: T1, New Delhi metallo-β-lactamase-1 (NDM-1) (Escherichia coli, UniProt E5KIY2, G219A); experiment: fluorescence quenching (binding constant KA)
T1 construct: gene blaNDM-1; NDM-1 without the signal peptide, amino-terminal histidine tag

[2] = molecular target: T2, New Delhi metallo-β-lactamase-1 (NDM-1) (Escherichia coli, UniProt E5KIY2); experiment: purified recombinant enzyme, nitrocefin hydrolysis assay; also fluorescence quenching, KA […] ([…] L/mol); type: biochemical
T2 construct: gene blaNDM-1; NDM-1 without the signal peptide, amino-terminal histidine tag

[3] = molecular target: T3, New Delhi metallo-β-lactamase-1 (NDM-1) (Escherichia coli, UniProt E5KIY2, K211A); experiment: fluorescence quenching (binding constant KA)
T3 construct: gene blaNDM-1; NDM-1 without the signal peptide, amino-terminal histidine tag

SMILES: C=CCc1ccc(O)c(-c2cc(CC=C)ccc2O)c1 [magnolol]
- Kd [1]: 18.2 µM
- IC50 [2]: 24.3 µM
- Kd [3]: 20.8 µM

From PMC5841300, “Magnolol restores the activity of meropenem against NDM-1-producing Escherichia coli by inhibiting the activity of metallo-beta-lactamase” (Cell Death Discovery, 2018)
